According to patent publication US20220268782A1, “METHODS FOR PREDICTING AND TREATING CARDIAC DYSFUNCTION” (INSERM (INSTITUT NATIONAL DE LA SANTÉ EAT DE LA RECHERCHE …, priority 2019, published 2022):

Tested on: WT mice
Test: In vivo subcutaneous PA treatment of WT mice: cardiac phenotyping
Procedure: […] […] General state of the mice (body weight & wellbeing) was closely monitored.
Data acquisition for a single cohort was performed by a single operator (JT or ER). Images were acquired from a parasternal position at the level of the papillary muscles using a 13-MHz linear-array transducer with a digital ultrasound system (Vivid 7, GE Medical System, Horton, Norway). Left ventricular dimensions and ejection fraction, anterior and posterior wall thicknesses were serially obtained from M-mode acquisition. Relative LV wall thickness (RWT) was defined as the sum of septal and posterior wall thickness over LV end-diastolic diameter, and LV mass was determined using the uncorrected cube assumption formula (LV mass=(AWTd+LVEDD+PWTd)^3−(LVEDD)^3). Peak systolic values of radial strain rate of the anterior and posterior wall were obtained using Tissue Doppler Imaging (TDI) as previously described.^2 TDI loops were acquired from parasternal view with a careful alignment with the radial component of the deformation' at a mean frame rate of 514 fps and a depth of 1 cm. The Nyquist velocity limit was set at 12 cm/s. Radial strain rate analysis was performed offline using the EchoPac Software (GE Medical Systems) blindly by a single operator (GD). Peak systolic of radial strain rate was computed from a region of interest positioned in the mid anterior wall and was measured over an axial distance of 0.6 mm. The temporal smoothing filters were turned off for all measurements. Because of the inevitable respiratory variability, we averaged peak systolic of radial strain rate on 8 consecutive cardiac cycles.
In vivo haemodynamic measurements were performed just before mice of indicated ages were sacrificed.' Haemodynamic evaluation was performed in mice placed on a homeothermic operating table in supine position under 1.5% isoflurane anesthesia with spontaneous breathing. A 1.4-Fr microcatheter (Millar Instruments, Houston, USA) was calibrated manually before each experiment, inserted via the right carotid artery into the aorta and subsequently advanced to the left ventricle. Data were collected after at least 10 min of baseline, using the lowest isoflurane concentration tolerated to ensure minimal cardiodepression during measurement of peak rates of isovolumetric pressure development (dP/dtmax) and pressure decay (dP/dtmin). The microcatheter was then withdrawn to the aorta for measurement of systolic and diastolic pressure. Data were analyzed using the IOX software (EMKA, France).
All mice were weighed, euthanized by cervical dislocation, followed by rapid excision of the organs of interest. The heart was cannulated through the aorta for perfusion with ice-cold 1×PBS, then blotted and weighed. The heart was cut in half perpendicular to its axis: the apical two-third was snap-frozen in liquid nitrogen, whilst the basic one-third was recannulated through the aorta, perfused with 10% formalin for histology. Hearts were kept in formalin at 4° C. for at least 24-48 hours before embedding. Snap-frozen tissues were kept at −80° C., until they were powdered using a mortar and pestle cooled with liquid nitrogen and collected as aliquots. Livers and kidneys were processed in a similar manner.
Formalin-fixed organs were embedded in paraffin. Cross-sections were cut into 7 μm thickness using a rotary microtome (Leica). To assess cardiac fibrosis, Sirius red staining was performed, followed by dehydration and mounting with Eukitt quick-hardening mounting medium (Sigma). To visualise cardiomyocyte hypertrophy, sections were incubated in 2 μg/mL Texas red-conjugated wheat germ agglutinin (WGA; Invitrogen) in 1×PBS at room temperature for 45 minutes. Slides were then mounted with fluorescent mounting media (Abcam). Images were acquired using a Zeiss fluorescent microscope. Whole-mount preparations were made of hearts and livers of 2- and 15-month-old p21-mCherry reporter mice. […]

[1] = older group (11 month-old at start), PA 200 mg/kg twice a day, one month

N[C@@H](Cc1ccccc1)C(=O)O [PA, (S)-2-Amino-3-phenylpropanoic acid]
course of drug treatment (body weight & wellbeing monitored) (PA 200 mg/kg twice a day subcutaneously for a month): completed as scheduled without incidents | LV ejection fraction (PA 200 mg/kg twice a day, one month, FIG. 3h): unaltered | Plasma PA levels (WT mice 5 vs. 11 month-old at start, PA 200 mg/kg twice a day over one month): increased in both age-groups, but were considerably higher in older animals | tolerability / weight loss (WT mice, PA 200 mg/kg twice a day over one month, data not shown): tolerated PA treatment well without significant weight loss | hepatic PA levels (livers of PA-treated 6-month-old WT mice vs. 12-month-old WT mice, FIG. 4m): comparable | cardiac hypertrophy (HW/TL) [1]: no change | cardiomyocyte size (cross-sectional area) [1]: no change | myocardial interstitial fibrosis (Sirius red) [1]: no change | cardiac hypertrophy (HW/TL) (young animals (5 month-old at start), PA 200 mg/kg twice a day, one month, FIG. 3c): increase | cardiomyocyte size (cross-sectional area) (young animals, PA 200 mg/kg twice a day, one month, FIG. 3e): increase | myocardial interstitial fibrosis (Sirius red) (young animals, PA 200 mg/kg twice a day, one month, FIG. 3f): increase | systolic strain rate (young group, PA 200 mg/kg twice a day, one month, FIG. 3i): reduced | dP/dtmax (young group, PA 200 mg/kg twice a day, one month, FIG. 3j): reduced | dP/dtmin (young group, PA 200 mg/kg twice a day, one month, FIG. 3k): reduced | myocardial senescence: p21, Pah, Gch1, 2-SC and 4-HNE (young hearts, PA 200 mg/kg twice a day, one month, FIG. 3l): upregulation
